Entries after “also recorded” stand apart in the source; their conditions may differ. Where two headings read alike, the source gives them in different places. Values belong to the compound of their own block, whether it stands above or below them.
Columns and labels:
[1] = target: BIR3 domain of cIAP1 (Homo sapiens, UniProt Q13490); settings: for IC50: read-out: DELFIA IC50 (nM) cIAP1-BIR3
[2] = target: BIR3 domain of cIAP2 (Homo sapiens, UniProt Q13489); settings: for IC50: read-out: DELFIA IC50 (nM) cIAP2-BIR3, 2-h incubation
Sequence of BIR3 domain of cIAP2 (Homo sapiens, UniProt Q13489) (Q13489 245-337 limits assumed): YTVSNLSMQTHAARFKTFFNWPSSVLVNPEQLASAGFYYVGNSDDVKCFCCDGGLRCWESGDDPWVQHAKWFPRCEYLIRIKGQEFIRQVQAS

[3] = target: BIR3 domain of cIAP1; settings: legend of FIG. 13; read-out: K is (Ki) for the BIR3 domain of cIAP1; cited from earlier work
[4] = target: BIR3 domain of cIAP2; settings: legend of FIG. 13; read-out: K is (Ki) for the BIR3 domain of cIAP2; cited from earlier work
[5] = target: BIR3 domain of XIAP; settings: legend of FIG. 13; read-out: K is (Ki) for the BIR3 domain of XIAP; cited from earlier work
[6] = target: T1, BIR3 domain of XIAP (Homo sapiens, UniProt P98170); assay: Isothermal titration calorimetry (ITC) against the BIR3 domain of XIAP; assay type: binding; parameters: human BIR3 domain of XIAP fragment (residues 253-347) and an N-terminal His tag; His tag (N); made in house; host or cells: E. coli BL21(DE3) Gold
T1 sequence (P98170 253-347): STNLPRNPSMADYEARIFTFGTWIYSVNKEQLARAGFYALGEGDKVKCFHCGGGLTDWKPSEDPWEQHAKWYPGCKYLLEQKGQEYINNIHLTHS

[7] = target: T1, BIR3 domain of XIAP; settings: read-out: DELFIA IC50 (nM) XIAP-BIR3, 2-h incubation
[8] = target: T1, BIR3 domain of XIAP; assay: biochemical
[9] = system: MIA PaCa-2 cells; assay: Co-treatment with gemcitabine (GEM) and IAP inhibitors, MIA PaCa-2; assay type: cell-based, human; settings: GEM 24 h, then GEM + 15 μM IAP inhibitor 24 h; result in words
Procedure: (§1) Cell lines and antibodies. […] (ATCC® TIB-196™), NCI-H929 [H929]
(§2) Pancreatic cancer cells co-treatment with gemcitabine (GEM) and IAP inhibitors. Pancreatic cancer cells were plated at 30×10^3 cells per well in 96-well plates. The next day, cells were treated with different concentrations of GEM. After 24-h incubation, media was removed and replenished with the same GEM concentration alone or with 15 μM of IAP inhibitors in serum-free media and cells were further incubated for 24 h.
(§3) Cell proliferation assay was determined using ATPlite 1Step Luminescence Assay System (PerkinElmer) according to the manufacturer's instructions, and luminescence was measured by VICTOR X5 microplate reader (PerkinElmer). Finally, data was plotted, and IC50 values were calculated using Prism GraphPad version 7. […] This experiment was repeated three times, and each concentration was tested in triplicate.

[10] = system: BxPC3 and PANC-1 cells; assay: Co-treatment with gemcitabine (GEM) and IAP inhibitors, BxPC3 and PANC-1; assay type: cell-based, human; settings: GEM 24 h, then GEM + 15 μM IAP inhibitor 24 h; result in words
Procedure: as §1, §2, §3

[11] = system: H929 and L363 cells; assay: MTS assay, LCL161-sensitive multiple myeloma cell lines; assay type: cell-based, human; settings: H929 and L363, 48 hr, 20 μM; result in words
Procedure: as §1
MTS assay. MM.1S, U266, L363, H929, LP1, RPMI cells were seeded on 96-well plates in three replicates at 100 μL/well (2.5×10^5cells/ml) in growing medium and exposed to 20 μM) of different chemical compounds.

[12] = figure legends and table titles

Sequence of BIR3 domain of cIAP1 (Homo sapiens, UniProt Q13490) (Q13490 266-352 limits assumed): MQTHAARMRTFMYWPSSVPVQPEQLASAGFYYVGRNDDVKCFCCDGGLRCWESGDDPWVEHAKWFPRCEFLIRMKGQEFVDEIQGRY

Compound: CN[C@@H](C)C(=O)N[C@@H](Cc1ccc(OS(=O)(=O)F)cc1)C(=O)N1CCC[C@H]1C(=O)NC1Cc2ccccc2C1 [Compound 142C1, MeHN-A-F(OSO2F)-P-2-aminoindan]
- IC50 ([1]; 2-h incubation, Table 9): 316 ± 6.4 nM
- IC50 ([2]; Table 9): 864.1 ± 8.3 nM

- ΔH of binding [6, 12]: -6.5 kcal/mol
Compound: CN[C@@H](C)C(=O)N[C@H]1CN(C(=O)CC(C)C)CC[C@H]2CC[C@@H](C(=O)NC(c3ccccc3)c3ccccc3)N2C1=O [AT-406]
- Ki [3]: 1.9 nM
- Ki [4]: 5.1 nM
- Ki [5]: 66.4 nM

- IC50 ([1]; 2-h incubation, Table 7): 4.3 nM
- IC50 ([1]; 2-h incubation, Table 9): 4.3 nM
- IC50 ([7]; Table 7): 31 nM
- IC50 ([7]; Table 9): 31 nM
- IC50 ([2]; Table 7): 1.3 nM
- IC50 ([2]; Table 9): 1.3 nM
Compound: MeNH-A-Dap(4-VSB)P-F-CONH2 [Compound 142B6]

Compound: CN[C@@H](C)C(=O)N[C@@H](Cc1ccc(S(=O)(=O)O)cc1)C(=O)N1CCCC1C(=O)NC1Cc2ccccc2C1 (stereo partly shown) [Compound 139H3]
- activity against the Bir3 domain of cIAP1 [1]: much less active
- activity against the Bir3 domain of cIAP2 ([2]; Example 1, result in words): much less active

Compound: MeHN-A-Dap(4-FSB)-P-(1-aminoindan) [Compound 142B1]
- IC50 [1]: 29.8 nM
- IC50 ([7]; Table 8): 6.9 nM
- IC50 ([2]; Table 8): 59.3 nM

Compound: MeHN-A-Dap(4-VSB)-P-(4F,1-aminoindan)-CONH2 [Compound 142B8]
- IC50 [1]: 4 nM
- IC50 ([7]; Table 9): 44.4 nM
- IC50 ([2]; Table 9): 2.9 nM

Compound: MeHN-A-Dap(4-FSB)-P-4F,1-aminoindan [Compound 142B3]
- IC50 [1]: 43.2 nM
- IC50 ([7]; Table 8): 8.9 nM
- IC50 ([2]; Table 8): 87.8 nM

Compound: CN[C@@H](C)C(=O)N[C@H](C(=O)N1CCC[C@H]1C(=O)Nc1snnc1-c1ccccc1)C1CCCCC1 [GDC-0152]
- Ki [4]: 43 nM
- IC50 ([8]; DELFIA IC50 (nM) XI4P-BIR3 2-h, 2-h, Table 10): 21.4 ± 1.7 nM
- IC50 ([8]; DELFIA IC50 (nM) XI4P-BIR3 6-h pre, 2-h, 6-h pre, Table 10): 17.9 nM
- IC50 ([8]; DELFIA IC50 (nM) XIAP-BIR3, 2-h incubation, Table 7): 21.4 ± 1.7 nM
- IC50 ([8]; DELFIA IC50 (nM) XIAP-BIR3, 2-h incubation, Table 8): 21.4 ± 1.7 nM
- IC50 ([8]; DELFIA IC50 (nM) XIAP-BIR3, 2-h incubation, Table 9): 21.4 ± 1.7 nM
- IC50 ([8]; IC50 (nM) by DELFIA assay XIAP, Table 6): 22.1 nM
- IC50 ([8]; IC50, Bir3 domain of XIAP, Example 1, displacing a biotin-labeled AVPF reference peptide): ~25 nM
- Ki [5]: 28 nM
- Kd ([6]; Example 1, read-out: Kd): 95 nM
- ΔH (kcal/mol) XIAP ([6]; Table 6, measured from a full curve titration): -5.16 kcal/mol
- Kd ([6]; Table 6, read-out: Kd (nM) by ITC XIAP): 94.7 nM
- ΔG ([6]; figure legend FIG. 6A): -9.58 kcal/mol
- ΔH of binding [6, 12]: -5.16 kcal/mol
- −TΔS [6, 12]: -4.44 kcal/mol
- ΔH of binding ([6]; figure legends and table titles, listed as GDC-0156): -5.2 kcal/mol
- ΔH of binding ([6]; figure legends and table titles, listed as GDG-0152): ~-5.2 kcal/mol

- IC50 ([1]; 2-h incubation, Table 8): ~1000 nM
- IC50 ([7]; Table 8): 18.8 nM
- IC50 ([2]; Table 8): ~1300 nM
Compound: CNC(C)C(=O)NC(CNC(=O)c1ccc(S(=O)(=O)F)cc1)C(=O)N1CCCC1C(=O)NC1Cc2ccccc2C1 (stereo not shown) [Compound 142B2, MeHN-A-Dap(4-FSB)-P-(2-aminoindan)]

Compound: CN[C@@H](C)C(=O)N[C@@H](Cc1cc(C)c(C(F)(F)F)cc1F)C(=O)N1CCC[C@H]1C(=O)NC1CCc2c(F)cccc21 (stereo partly shown) [Compound 31]
- effect in combination with gemcitabine, MIA PaCa-2 [9]: modest significant additive effect
- effect in combination with gemcitabine, BxPC3 and PANC-1 (pancreatic cancer cell lines, FIG. 10E) [10]: significantly sensitize; also recorded: able to significantly restore growth inhibition by gemcitabine; also recorded: significant synergism
- activity in LCL161-sensitive MM cell lines [11]: approximately equipotent

— patent US11590197B2, “Agents targeting inhibitor of apoptosis proteins” (The Regents of the University of California, priority 2017, dated 2023)
